Like-named read-outs stand apart in the source and are kept apart here.
Experiments:
human FXR alpha (NR1H4) = molecular target: T1, human FXR alpha (NR1H4) (Homo sapiens, UniProt Q96RI1); assay: In vitro screening for FXR binding to coactivator TIF2 (LANCE TR-FRET); format: biochemical
T1 construct: human FXR alpha (NR1H4—(Acc. No:AF384555)) encoding amino acids 187–472; made in house; host or cells: E. coli BL21
T1 sequence (Q96RI1 187-472 isoform Q96RI1-2): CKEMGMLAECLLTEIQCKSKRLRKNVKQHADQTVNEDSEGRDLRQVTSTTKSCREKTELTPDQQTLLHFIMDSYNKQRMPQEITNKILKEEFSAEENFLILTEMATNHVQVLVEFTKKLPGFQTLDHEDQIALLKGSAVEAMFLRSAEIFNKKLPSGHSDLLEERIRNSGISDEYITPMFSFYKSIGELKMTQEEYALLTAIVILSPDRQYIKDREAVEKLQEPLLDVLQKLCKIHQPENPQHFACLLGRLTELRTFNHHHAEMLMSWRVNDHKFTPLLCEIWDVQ
T1 sequence (Q15596 548-878 partner limits assumed): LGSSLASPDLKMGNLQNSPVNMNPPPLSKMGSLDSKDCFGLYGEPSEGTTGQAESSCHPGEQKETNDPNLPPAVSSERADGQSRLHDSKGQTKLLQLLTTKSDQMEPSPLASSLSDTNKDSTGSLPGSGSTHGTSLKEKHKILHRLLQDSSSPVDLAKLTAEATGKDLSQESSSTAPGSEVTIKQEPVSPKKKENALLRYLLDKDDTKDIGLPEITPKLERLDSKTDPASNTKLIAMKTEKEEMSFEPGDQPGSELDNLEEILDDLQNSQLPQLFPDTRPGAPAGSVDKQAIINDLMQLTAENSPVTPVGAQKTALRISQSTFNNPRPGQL
Source text: For screening purposes a fragment of the open reading frame of human FXR alpha (NR1H4—(Acc. No:AF384555)) encoding amino acids 187–472 was amplified by standard RT PCR procedures (see FIGS. 2A and 2B; SEQ ID NO. 1 and 2). Starting material was total RNA derived from human liver. The resulting cDNA obtained after reverse transcription was subsequently cloned using the Gateway™ recombination technology (Invitrogen, USA) into the expression plasmid pDest15 (Invitrogen, USA). This construct was used to express a recombinant GST-FXR fusion protein in E.coli (BL21 strain). A pDEST 17 derivative clone harboring an additional sequence encoding amino acids 548–878 of human TIF2 (Acc. No: XM—011633 RefSeq) (see FIGS. 2C and 2D, SEQ ID NO. 3 and 4) was constructed using Gateway™ recombination technology (Invitrogen, USA) in order to obtain a construct which was used to express recombinant His-tagged TIF2 fragment could be expressed in E. coli. For E. coli expression of both constructs, plasmid DNA was transformed into chemically competent E. coli BL21 (Invitrogen, USA) and cells were grown to an OD600 of 0.4–0.7 before expression was induced by addition of 0.5 mM IPTG according instructions of the manufacturer (Invitrogen). After induction for 8 hours at 30° C. cells were harvested by centrifugation for 10 minutes at 5000×g. Fusion proteins were affinity purified using Glutathion sepharose (Pharmacia) or Ni-NTA Agarose (QIAGEN) according to the instructions of the respective manufacturer. Recombinant proteins were dialyzed against 20 mM Tris/HCL pH 7.9; 60 mM KCl; 5 mM MgCl2; 1 mM DTT, 0.2 mM PMSF; and 10% glycerol. The TIF2 fragment was subsequently biotinylated by addition of 40–120 μl of a biotinamidocaproate N-hydroxysuccinimide-ester (Sigma) solution (20 mg/ml in DMSO). Overhead rotating samples were incubated for two hours at room temperature. Unincorporated label was then separated using G25 Gel filtration chromatography (Pharmacia Biotech, Sweden). Protein containing fractions from the column were pooled and tested for activity in the assay as described below.
For screening of compound libraries as provided for by the methods shown below in the examples for substances which influence the FXR/Tif 2 interaction, the Perkin Elmer LANCE technology was applied. This method relies on the binding dependent energy transfer from a donor to an acceptor fluorophore attached to the binding partners of interest. For ease of handling and reduction of background from compound fluorescence LANCE technology makes use of generic fluorophore labels and time resolved detection (for detailed description See Hemmilä I, Blomberg K and Hurskainen P, Time-resolved resonance energy transfer (TR-FRET) principle in LANCE, Abstract of Papers Presented at the 3rd Annual Conference of the Society for Biomolecular Screening, Sep., California (1997)).
For screening, 20–200 ng of biotinylated Tif 2 fragment and 10–200 ng of GST-FXR fragment were combined with 0.5–2 nM LANCE Eu-(W1024) labeled anti-GST antibody (Perkin Elmer) and 0.5–2 μg of Highly fluorescent APC-labeled streptavidin (Perkin Elmer) in the presence of 50 μM of individual compounds to be screened in a total volume of 25 μl of 20 mM Tris/HCl pH 7.9; 60 mM KCl; 5 mM MgCl2; and 160 ng/μl BSA. DMSO content of the samples was kept below 4%. Samples were incubated for a minimum of 60 minutes in the dark at room temperature in FIA-Plates black 384well med. binding (Greiner).
The LANCE signal was detected by a Perkin Elmer VICTOR2V™ Multilabel Counter applying the detection parameters listed in Table 3, below. The results were visualized by plotting the ratio between the emitted light at 665 nm and at 615 nm. For every batch of recombinant proteins amount of proteins and labeling reagents giving the most sensitive detection of hits was determined individually by analysis of dose response curves for chenodeoxycholic acid.

FXR = molecular target: T2, FXR (Homo sapiens, UniProt Q96RI1); assay: FXR-mediated transactivation, luciferase reporter in stable HEK293FXR reporter cell line; format: cell-based; settings: HEK293FXR reporter cells, 16 hours
T2 construct: expressed in transfected cells
T2 sequence (Q96RI1 1-472 isoform Q96RI1-2): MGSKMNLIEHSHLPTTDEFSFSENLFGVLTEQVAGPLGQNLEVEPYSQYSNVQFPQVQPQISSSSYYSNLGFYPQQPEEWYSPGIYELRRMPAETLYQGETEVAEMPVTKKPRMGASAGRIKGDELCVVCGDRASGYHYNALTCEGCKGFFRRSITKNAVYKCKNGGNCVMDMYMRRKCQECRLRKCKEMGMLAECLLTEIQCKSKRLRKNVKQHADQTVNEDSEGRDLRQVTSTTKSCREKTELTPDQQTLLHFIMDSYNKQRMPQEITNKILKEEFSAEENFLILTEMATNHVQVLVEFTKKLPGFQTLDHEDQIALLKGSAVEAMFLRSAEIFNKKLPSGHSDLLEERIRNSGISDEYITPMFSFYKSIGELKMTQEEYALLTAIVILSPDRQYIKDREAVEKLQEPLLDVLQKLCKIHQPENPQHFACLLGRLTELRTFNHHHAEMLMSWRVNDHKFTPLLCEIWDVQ
Source text: A compound according to the invention (experiments shown were done with MOLSTRUCTURE LN 0000006734; see Table 1 for structural formula) can mediate transactivation of FXR-mediated transcription in a HEK293 reporter cell line. […] The full length human FXR (accession U68233) and the full length human RXRα (accession P19793) were cloned into the […]30 applying the manufacturer protocols for the GatewayTM system (Invitrogen). The FXR response elements were cloned (upper case). [NT] ID NO. 5) was obtained from the human IBAB-P promoter (Grober et al 1999, JBC 274, pp. 29749-29754). A stable clone was selected and seeded at a density of 5×10^4 cells per well in 48 well plates. […] Variations of duplicate measurements are within 20%.

[1] = average of multiple experiments, read-out: EC50 AVG

Row | SMILES | EC50 (human FXR alpha (NR1H4); [1]) [µM] | EFFIC AVG (average efficacy, % activity relative to CDCA control agonist) (human FXR alpha (NR1H4)) [%] | agonist of the NR1H4 human nuclear receptor (human FXR alpha (NR1H4)) | other results
1 | CC(C)c1onc(-c2c(Cl)cccc2Cl)c1COc1ccc2cc(C(=O)O)ccc2c1 [LN0000000169] | 2.6 | 134 | – | Luciferase reporter activity (FXR; 0.08 μM): 1630.0; Luciferase reporter activity (FXR; 0.4 μM): 2754.0; Luciferase reporter activity (FXR; 1 μM): 4600.0; Luciferase reporter activity (FXR; 2 μM): 5775.7; Luciferase reporter activity (FXR; 10 μM): 6829.3; Luciferase reporter activity (FXR; 50 μM): 13375.7
2 | CC(C)c1onc(-c2c(Cl)cccc2Cl)c1COc1ccc(Oc2ccc(C(=O)O)cc2)cc1 [LN0000006734] | 0.6 | 85 | – | Luciferase reporter activity (FXR; 0.08 μM): 2153.0; Luciferase reporter activity (FXR; 0.4 μM): 2991.5; Luciferase reporter activity (FXR; 1 μM): 5360.5; Luciferase reporter activity (FXR; 2 μM): 6330.5; Luciferase reporter activity (FXR; 10 μM): 8523.5; Luciferase reporter activity (FXR; 50 μM): 13309.5; EC50 (FXR; read-out: EC50 of dose-dependent transactivation of the reporter gene luciferase by FXR): ~1 µM
3 | COC(=O)CCc1ccc(OCc2c(-c3c(Cl)cccc3Cl)noc2C(C)C)cc1 [LN0000006764] | 0.72 | 108 | – | –
4 | CC(C)c1onc(-c2c(Cl)cccc2Cl)c1COc1ccc(CCC(=O)O)cc1 [LN0000006765] | 0.43 | 115 | – | –
5 | CC(C)c1onc(-c2c(Cl)cccc2Cl)c1COc1ccc(OCC(=O)O)cc1 [LN0000006767] | 0.23 | 117 | – | –
6 | CC(C)c1onc(-c2c(Cl)cccc2Cl)c1COc1ccc(/C=C/C(=O)O)c(Cl)c1 [LN0000006772] | 0.05 | 100 | – | –
7 | CC(C)c1onc(-c2c(Cl)cccc2Cl)c1COc1ccc(OCC(=O)O)cc1 [formula (II)] | – | – | – | EC50 (human FXR alpha (NR1H4); read-out: EC50 at FXR (half-maximal effective concentration)): 0.23 µM
8 | CC(C)c1onc(-c2c(Cl)cccc2Cl)c1COc1ccc(Oc2ccc(C(=O)O)cc2)cc1 [formula III] | – | – | active as agonist | –
9 | CC(C)c1onc(-c2c(Cl)cccc2Cl)c1COc1ccc(CCC(=O)O)cc1 [formula IV] | – | – | active as agonist | –
10 | CC(C)c1onc(-c2c(Cl)cccc2Cl)c1COc1ccc(/C=C/C(=O)O)c(Cl)c1 [formula V] | – | – | active as agonist | –

Source: US7034046B2, “NR1H4 nuclear receptor binding compounds” (Phenex Pharmaceuticals AG, priority 2001, dated 2006)
